The values that follow come from patent publication US11046854B2, “Slippery liquid-infused porous surfaces that prevent microbial surface fouling” (Wisconsin Alumni Research Foundation, priority 2016, dated 2021).

Format in all cases: physicochemical
Data set [1] is described as follows: Release of QSIs and DMABI from SLIPS in PBS at 37° C. (UV/vis). Here is the method:
Small Molecule Loading, Oil Infusion, and Characterization of Release. […] Immediately prior to use, loaded films were infused with silicone oil (for melting point and boiling point apparatuses; Sigma-Aldrich) by placing a 2.25 μL droplet of oil on each side and allowing the oil to spread over the entire surface. Excess oil was removed from the surface using tissue paper. […] At designated time points, substrates were removed from the incubation buffer and placed in fresh buffer before returning to the incubator. The release of the loaded agents into the incubation buffer was characterized using a UV/vis spectrophotometer.
Characterization of the release of QSIs and biofilm inhibitors from SLIPS.

The nature of data set [2]: Water droplet sliding velocity on compound-loaded SLIPS. The following applies: 10 μL water droplets, SLIPS loaded with the compound, tilt angle 10°; mean and standard error of six replicates. The text has this: All QSI-loaded SLIPS used in this study contained 240 nmol of compound per substrate and all DMABI-loaded SLIPS contained 300 nmol of compound.
Data set [3] is described as follows: Solubility of triclosan in silicone oil.

Structures are written as SMILES.

Consider `Cc1cc2nc(N)[nH]c2cc1C` [DMABI, Dimethyl-2-aminobenzamidazole], for which the loaded compound released entry in data set [1] (after the first 24 hours) is listed as “approximately 40%”. Also, the additional compound released result in data set [1] (over the next 150 hours) was “approximately 40%”. Besides, in data set [2], the “Slide Velocity” value is recorded as 7.4 ± 0.2 mm/s.
For the compound `Oc1cc(Cl)ccc1Oc1ccc(Cl)cc1Cl` [Triclosan, 5-chloro-2-(2,4-dichlorophenoxy)phenol], the “solubility in silicone oil” value in data set [3] is given as “soluble in silicone oil”.
